The text below walks through data of publication PMC7569734 (Bioorganic & medicinal chemistry letters, 2019).

Entries after “also recorded” stand apart in the source; their conditions may differ. Where two headings read alike, the source gives them in different places. Marks after values point to notes of the source that are not given here.

One assay concerns Estrogen Receptor. Kind of assay: Estrogen receptor assay. Format: cell-based.
Assay [1] has as its system Type 2 GD patient-derived cells (L444P/L444P genotype). Kind of assay: GPN-induced lysosomal calcium release assay in Type 2 GD patient-derived cells. It counts as cell-based, human. Conditions: for Emax: Homo sapiens, read-out: Lysosomal Ca+2 Assay Emax, GD patient-derived cells, percent activation of basal GPN-induced calcium response measured in the absence of compound.

For `CC/C(=C(\c1ccccc1)c1ccc(OCCN(C)C)cc1)c1ccccc1` [Compound 1, tamoxifen, reference compound], in the assay with Estrogen Receptor, the “Estrogen Receptor % Activity @ 10 μM (inhibition)” value is on record as 100%^†† and the “estrogen receptor functional activity (in words)” value is “antagonist activity”. Further, in assay [1] (GD patient-derived cells), the “activity in lysosomal calcium release assay (in words)” value is given as “partially restores lysosomal calcium in GD patient-derived cells”.

With `CCC(Cc1ccc(OCCN(C)C)cc1)c1ccccc1` (centres unmarked) [Compound 5], the “activity in lysosomal calcium release assay (in words)” value in assay [1] (GD patient-derived cells) is “somewhat more potent than and equally efficacious as tamoxifen”.

For `CCC(C(=O)c1ccc(OCCN(C)C)cc1)c1ccccc1` (centres unmarked) [Compound 17], the “activity in lysosomal calcium release assay (in words)” value in assay [1] (GD patient-derived cells) is “little effect on lysosomal calcium release”.

Turning to `CCCC(C(=O)c1ccc(OCCN(C)C)cc1)c1ccccc1` (centres unmarked) [Compound 18], in assay [1] (GD patient-derived cells), the “activity in lysosomal calcium release assay (in words)” value is recorded as “little effect on lysosomal calcium release”.

As a reminder, the Emax is the maximal effect, on the per cent scale that the assay sets. Regarding `CC(C)C(C(=O)c1ccc(OCCN(C)C)cc1)c1ccccc1` (centres unmarked) [Compound 19], the Emax in assay [1] was 54 to 60%.

For `CCCC(CCC)(C(=O)c1ccc(OCCN(C)C)cc1)c1ccccc1` [Compound 20], the Emax in assay [1] was in the range of 54 to 60%.

In the case of `CCCCC(C(=O)c1ccc(OCCN(C)C)cc1)c1ccccc1` (centres unmarked) [Compound 21], the “activity in lysosomal calcium release assay (in words)” value in assay [1] (GD patient-derived cells) was “little effect on lysosomal calcium release; also recorded: no activity”.

Consider `CC(C)CC(C(=O)c1ccc(OCCN(C)C)cc1)c1ccccc1` (centres unmarked) [Compound 22], for which the “potency relative to tamoxifen in calcium release assay” value in assay [1] (GD patient-derived cells, fold more potent than tamoxifen) amounted to 10 fold.

Take `CC(C)CCC(C(=O)c1ccc(OCCN(C)C)cc1)c1ccccc1` (centres unmarked) [Compound 23]: the “estrogen receptor functional activity (in words)” value in the assay on Estrogen Receptor (10 μM) was “partial agonist activity”. In addition, in assay [1] (GD patient-derived cells, percent more efficacious than tamoxifen), the “efficacy relative to tamoxifen in calcium release assay” value is “roughly 30%”.

With `CCCCCCC(C(=O)c1ccc(OCCN(C)C)cc1)c1ccccc1` (centres unmarked) [Compound 24], the “estrogen receptor functional activity (in words)” value in the assay with Estrogen Receptor (10 μM) is “partial agonist activity”. Further, the “activity in lysosomal calcium release assay (in words)” value in assay [1] (GD patient-derived cells) is reported as “little effect on lysosomal calcium release”.

`CCCCC(C(=O)c1ccc(OCCN(C)C)cc1)c1ccccc1CC` (centres unmarked) [Compound 26]: in the assay with Estrogen Receptor (10 μM), the “estrogen receptor functional activity (in words)” value was “antagonist rather than an agonist”.

One may read the EC50 as the midpoint of the concentration-response curve. As to `CCCCC(C(=O)c1ccc(OCCN(C)C)cc1)c1ccccc1C(C)C` (centres unmarked) [Compound 28], in assay [1] (read-out: Lysosomal Ca+2 Assay EC50, GD patient-derived cells, GPN-induced calcium release), the EC50 worked out at 1480 nM.

Regarding `CC(C)CC(C(=O)c1ccc(OCCN(C)C)cc1)c1ccccc1C1CC1` (centres unmarked) [Compound 31], the “estrogen receptor functional activity (in words)” value in the assay with Estrogen Receptor (10 μM) is on record as “devoid of estrogenic activity; also recorded: lack of any estrogenic activity”.
